Reference: publication PMC10305617, “Sesquiterpene Coumarin Ethers with Selective Cytotoxic Activities from the Roots of Ferula huber-morathii Peşmen (Apiaceae) and Unequivocal Determination of the Absolute Stereochemistry of Samarcandin” (Pharmaceuticals, 2023)

Tests used:
Assay type in all cases: cell-based, Human
K-562 = test: MTS cell viability (cytotoxic activity) assay, K-562; details: for IC50: Homo sapiens, K562, K-562, MTS, 72 h, mean ± SD, at least three experiments
Source text: (§1) Human colorectal cancer (COLO 205, CCL-222), breast cancer (MCF-7, HTB-22), chronic myelogenous leukemia (K-562, CCL-243), and umbilical vein/vascular endothelium (HUVEC, CRL-1730) cell lines were obtained from the American Type Culture Collection. The COLO 205, MCF-7, K-562, and HUVEC cell lines were maintained in Roswell Park Memorial Institute ([…], Wisent, Montreal, QC, CANADA), Eagle′s Minimum Essential Medium (EMEM, Wisent, Montreal, QC, CANADA), Iscove’s Modified Dulbecco’s Medium (IMDM, Wisent, Montreal, QC, CANADA), and Dulbecco′s Modified Eagle Medium (DMEM, Wisent, Montreal, QC, CANADA) supplemented with 10% fetal bovine serum (Capricorn, Ebsdorfergrund, Germany), 100 U/mL penicillin, and 100 µg/mL streptomycin (Wisent, Montreal, QC, CANADA), respectively. All of the cell lines were cultured at 37 °C in a humidified atmosphere containing 5% CO2.
(§2) A 3-[4,5-dimethylthiazol-2-yl]-5-[3-carboxymethoxyphenyl]-2-[4-sulfophenyl]-2H-tetrazolium, inner salt (MTS) cell viability assay was performed to evaluate the cytotoxic activities of the sesquiterpene coumarin ethers isolated from Ferula huber-morathii. HUVEC (1 × 10^4), COLO 205 (3 × 10^4), K-562 (3 × 10^4), and MCF7 (5 × 10^4) were plated in 96-well plates. Then, 24 h later, the tested compounds were dissolved in DMSO, and the cells were exposed to the different concentrations (131.58–1.028 µM) of the compounds for 72 h. Cisplatin and doxorubicin were used as a positive control. Next, an MTS/phenazine methosulfate (PMS) (Promega, Madison, WI, USA and Sigma, St. Louis, MO, USA respectively) mixture was added to each well and incubated for 1–4 h at 37 °C. The absorbance was read on a microplate reader (Biotek, Winooski, VT, USA) at 490 nm. The cytotoxic activities of the compounds were expressed as an IC50 value. The % inhibition of cell proliferation was calculated using the formula: % Inhibition = [1-(A490test/A490cont)] × 100, where A490test = absorbance of the test sample and A490cont = absorbance of the control sample [88]. The values of the 50% inhibition of the cell proliferation (IC50) were calculated by locating the x-axis values corresponding to one-half of the absorbance values of the sample.

HUVEC = test: MTS cell viability (cytotoxic activity) assay, non-cancerous HUVEC; details: Homo sapiens, 72 h, mean ± SD, at least three experiments
Source text: as §1, §2

COLO 205 = test: MTS cell viability (cytotoxic activity) assay, COLO 205; details: for IC50: Homo sapiens, COLO 205, MTS, 72 h, mean ± SD, at least three experiments
Source text: as §1, §2

MCF-7 = test: MTS cell viability (cytotoxic activity) assay, MCF-7; details: for IC50: Homo sapiens, MCF7, MCF-7, MTS, 72 h, mean ± SD, at least three experiments; for cytotoxic effect in words, MCF-7: verbal summary
Source text: as §1, §2

[1] = tested on: COLO 205, K-562, MCF-7 and HUVEC cell lines; test: MTS cytotoxicity, overall verbal grading over the cell line panel; details: authors' verbal summary over COLO 205, K-562, MCF-7, HUVEC
Source text: as §1, §2

Row | Structure (SMILES) | IC50 (K-562) | IC50 (HUVEC) | IC50 (COLO 205) | IC50 (MCF-7) | cytotoxicity in words [1] | selectivity index K-562 (K-562; HUVEC versus K-562) | selectivity index COLO 205 (COLO 205; HUVEC versus COLO 205) | selectivity index MCF-7 (MCF-7; HUVEC versus MCF-7) | cytotoxic effect in words, MCF-7 (MCF-7)
1 | C=C1CC[C@@H]2C(C)(C)C(=O)CC[C@@]2(C)[C@@H]1COc1ccc2ccc(=O)oc2c1 [Badrakemone (4), badrakemone] | > 200 µM | > 200 µM | > 200 µM | > 200 µM | little or no cytotoxicity | – | – | – | –
2 | CN1C[C@H](c2cccc(C#N)c2)Oc2ccccc2C1=O [Compound 6, reference compound] | – | – | – | – | little or no cytotoxicity | – | – | – | –
3 | CC1=CC[C@@H]2C(C)(C)[C@@H](O)CC[C@@]2(C)[C@@H]1COc1ccc2ccc(=O)oc2c1 [Conferol (2), conferol] | 35.2 ± 0.89 µM | 61.03 ± 0.29 µM | 11.2 ± 0.68 µM | 16 ± 0.46 µM | moderate or strong cytotoxicity | 1.73 | 5.45 | 3.82 | –
4 | CC1(C)[C@H]2CC[C@@](C)(O)[C@H](COc3ccc4ccc(=O)oc4c3)[C@]2(C)CC[C@@H]1O [Deacetylkellerin (11), deacetylkellerin] | > 200 µM | > 200 µM | > 200 µM | 47.62 ± 0.4 µM | little or no cytotoxicity | – | – | – | –
5 | COc1cccc2c1C(=O)c1c(O)c3c(c(O)c1C2=O)C[C@@](O)(C(=O)CO)C[C@@H]3O[C@H]1C[C@H](N)[C@H](O)[C@H](C)O1 [Doxorubicin, reference compound] | 0.33 ± 0.02 µM | 0.2 ± 0.02 µM | 0.08 µM | 2.83 ± 0.25 µM | – | – | – | – | –
6 | C=C1CC[C@@H]2C(C)(C)[C@H](O)CC[C@@]2(C)[C@H]1COc1ccc2ccc(=O)oc2c1 [Farnesiferol A (6), farnesiferol A] | > 200 µM | 74.4 ± 1.19 µM | > 200 µM | > 200 µM | – | – | – | – | –
7 | C=C1CCC2C(C)(C)C(OC(C)=O)CCC2(C)C1COc1ccc2ccc(=O)oc2c1 (centres unmarked) [Farnesiferol A acetate (7), farnesiferol A acetate] | 52.7 ± 0.9 µM | 64.5 ± 1.56 µM | 66 ± 1.89 µM | 27.4 ± 0.96 µM | moderate or strong cytotoxicity | – | – | – | moderate cytotoxic activity
8 | CC1(C)[C@H](O)CC[C@]2(C)[C@@H]1CC[C@@](C)(O)[C@@H]2COc1ccc2ccc(=O)oc2c1 [Ferukrin (9), ferukrin] | > 200 µM | > 200 µM | > 200 µM | 81.7 ± 1.96 µM | little or no cytotoxicity | – | – | – | –
9 | CC(=O)O[C@@H]1CC[C@]2(C)[C@H](CC[C@@](C)(O)[C@@H]2COc2ccc3ccc(=O)oc3c2)C1(C)C [Ferukrin acetate (10), ferukrin acetate] | 88.42 ± 0.85 µM | > 200 µM | 106 ± 1.35 µM | > 200 µM | little or no cytotoxicity | – | – | – | –
10 | C=C1CC[C@@H]2C(C)(C)[C@@H](O)CC[C@@]2(C)[C@H]1COc1ccc2ccc(=O)oc2c1 [Gummosin (8), gummosin] | 95.5 ± 4.87 µM | 174.8 ± 0.28 µM | > 200 µM | > 200 µM | little or no cytotoxicity | – | – | – | –
11 | CC(=O)O[C@H]1CC[C@]2(C)[C@H](CC[C@@](C)(O)[C@@H]2COc2ccc3ccc(=O)oc3c2)C1(C)C [Kellerin (12), kellerin] | 78.1 ± 3.13 µM | 99.4 ± 1.63 µM | 51.1 ± 1.57 µM | 18.24 ± 0.12 µM | – | – | – | – | moderate cytotoxic effect
12 | CC1(O)CCC2C(C)(C)C(O)CCC2(C)C1COc1ccc2ccc(=O)oc2c1 (centres unmarked) [Samarcandin (14), samarcandin] | 143 ± 1.67 µM | 169 ± 2.68 µM | 170 ± 3.62 µM | 83.27 ± 0.39 µM | little or no cytotoxicity | – | – | – | –
13 | CC(=O)O[C@H]1CC[C@]2(C)[C@H](CC[C@](C)(O)[C@H]2COc2ccc3ccc(=O)oc3c2)C1(C)C [Samarcandin acetate (15), samarcandin acetate] | 78.7 ± 1.65 µM | > 200 µM | 70.29 ± 0.65 µM | > 200 µM | little or no cytotoxicity | – | – | – | –
14 | CC1(C)C(=O)CC[C@]2(C)[C@@H]1CC[C@](C)(O)[C@H]2COc1ccc2ccc(=O)oc2c1 [Samarcandone (13), samarcandone] | > 200 µM | 190 ± 5.2 µM | 125 ± 2.13 µM | > 200 µM | little or no cytotoxicity | – | – | – | –
